System: K^Buty of H3 and H4 in HeLa cells
Assay: K^Buty level in histones of HeLa cells treated with HDAC inhibitors (immunoblot)
Assay type: cell-based
Conditions: anti-K^Buty immunoblot
Method: FIGS. 17A-C. […] Four peptide libraries were spotted on nitrocellulose membrane with four dilutions and were used to assay the antibody's specificity. The 14-residue randomized peptide libraries have a fixed residue at 8th position, K^Ac in lane 1, K^Prop in lane 2, K^Buty in lane 3, and K in lane 4. Dot-blot analysis was used to test the specificity of the antibody. To perform the dot-blot analysis, 2 ul of peptide diluted in distilled water to different concentrations was spotted on a strip of nitrocellulose membrane and allowed to air dry. The membrane was then assayed in a manner similar to that used in the immunoblot analysis. […] Lane 3 and 4 are WB controls using anti-H3 and anti-H4 antibodies, respectively. For antibody competition assay, 200 ng of anti-K^Buty antibody was incubated with 1 ug of a peptide library with a fixed non-modified lysine (lane 1) or with a fixed butyryllysine (lane 2), respectively. After incubation for 3 hour at room temperature, the antibody was subjected to immunoblot against core histones derived from Hela cells. Histone H3 and H4 antibodies were used to indicate the positions of H3 or H4 (lane 3 and lane 4). […] The core histones were prepared from HeLa cells treated with nothing, or trichostatin A (TSA), or sodium butyrate (NaBu), as indicated. […]

CC(/C=C/C(=O)NO)=C\[C@@H](C)C(=O)c1ccc(N(C)C)cc1 [trichostatin A] was tested, and the “K^Buty level” value (10 uM, 6 Hours) was “dramatically induced”.

In the case of CCCC(=O)[O-].[Na+] [sodium butyrate], the “K^Buty level” value (20 mM for 6 hours) is reported as “dramatically induced”.

From patent publication US20080241862A1, “PROPIONYL AND BUTYRYL LYSINE MODIFICATIONS IN PROTEINS” (priority 2007, published 2008)
